Among the test systems are UACC-257; OVCAR-3; SK-MEL-2; HCT-116; KM12; CAKI-1; EKVX; SF-295; MDA-N; UO-31; HCT-15; OVCAR-5; UACC-62; MOLT-4; HT-29; NCI-H460; Malme-3M; MCF7; HOP-92.
Common to all, as to assay: NCI anticancer screen, dose series, 48 h

Each structure is given as a SMILES string.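 96-well plates; 48 h exposure; 5 concentrations. Endpoints by linear interpolation between flanking doses. Not reached: highest tested concentration assigned. At the GI50, growth is halved.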 Active and inactive are the calls of the source. Rule as the data show it: active = GI50 up to about 1.1 µM and inactive = higher.

The values below come from ChEMBL document CHEMBL1201862, “PubChem BioAssay data set” (2004).

For `CCCNC1=Nc2ccccc2NC(C)C1` (configuration not stated), the GI50 in the assay on UACC-257, in the assay with OVCAR-3, in the assay on SK-MEL-2, in the assay with HCT-116, with KM12 and in the assay with CAKI-1 was > 100 µM (inactive) in each case. In addition, the GI50 in the assay with EKVX is > 100 µM (inactive); with SF-295, > 100 µM (inactive); in the assay on MDA-N, > 100 µM (inactive); with UO-31, > 100 µM (inactive); in the assay on HCT-15 it was > 100 µM; in the assay with OVCAR-5, > 100 µM (inactive). For the same compound, the GI50 was > 100 µM (inactive) with UACC-62; > 100 µM (inactive) in the assay on MOLT-4; > 100 µM (inactive) in the assay on HT-29; > 100 µM (inactive) in the assay on NCI-H460; 79.6 µM (inactive) in the assay on Malme-3M.
On to `N#C[C@@H](c1ccccn1)c1ncccc1[N+](=O)[O-]`, for which the GI50 in the assay on OVCAR-3 was > 100 µM (inactive); in the assay on SK-MEL-2 it was > 100 µM (inactive); in the assay on HCT-116, > 100 µM (inactive); in the assay on CAKI-1, > 100 µM (inactive); with MCF7, 74 µM (inactive); in the assay with EKVX, > 100 µM (inactive). Further, the GI50 in the assay with SF-295 is > 100 µM (inactive); with MDA-N it was > 100 µM (inactive); with UO-31 it was > 100 µM (inactive); with HCT-15 it was > 100 µM; in the assay on OVCAR-5, > 100 µM (inactive); in the assay on UACC-62, > 100 µM (inactive). Also, the GI50 in the assay with MOLT-4, in the assay on HT-29, in the assay with NCI-H460 and with Malme-3M was > 100 µM (inactive) throughout.
As to `O=c1c2ccccc2[nH]c2c(Cl)cc(Cl)c(NC3CCCCC3)c12`, the GI50 with UACC-257 was 23.6 µM (inactive); in the assay with OVCAR-3, 14.2 µM (inactive); in the assay with SK-MEL-2 it was 16.8 µM (inactive); in the assay with HCT-116 it was 38.5 µM (inactive); in the assay with KM12, 14.8 µM (inactive); with CAKI-1 it was 31.5 µM (inactive). For the same compound, the GI50 in the assay with MCF7 is 18.7 µM (inactive); in the assay with EKVX it was 23 µM (inactive); in the assay with SF-295, 24.2 µM (inactive); with MDA-N it was 33.3 µM (inactive); with UO-31 it was 15.3 µM (inactive); in the assay on HCT-15, 30.1 µM. For the same compound, the GI50 in the assay with OVCAR-5 was 20.1 µM (inactive); in the assay on UACC-62 it was 16.6 µM (inactive); in the assay with MOLT-4, 23 µM (inactive); in the assay with HT-29, 16.3 µM (inactive).
As for `CC1C(=O)OCC2=CCN3CCC(OC(=O)C(C)C1(C)O)C23` (configuration not stated), the GI50 in the assay with UACC-257, in the assay on OVCAR-3, with SK-MEL-2, in the assay on HCT-116, in the assay with KM12 and with CAKI-1 was > 100 µM (inactive) throughout. Besides, the GI50 in the assay on HOP-92 was > 100 µM (inactive); in the assay with EKVX, > 100 µM (inactive); with SF-295, > 100 µM (inactive); with MDA-N, > 100 µM (inactive); in the assay on UO-31, > 100 µM (inactive); in the assay on HCT-15, > 100 µM. Moreover, the GI50 in the assay on OVCAR-5, in the assay on UACC-62, in the assay with MOLT-4, in the assay with HT-29, in the assay with NCI-H460 and with Malme-3M was > 100 µM (inactive) throughout.
Consider `CCOC(=O)C(C)c1nc2c(Cl)c3ncccc3cc2[nH]c1=O` (configuration not stated), for which the GI50 was > 100 µM (inactive) in the assay on UACC-257; 57.3 µM (inactive) with OVCAR-3; > 100 µM (inactive) in the assay with SK-MEL-2; 76.9 µM (inactive) with HCT-116; 43.8 µM (inactive) with KM12; 69.5 µM (inactive) in the assay on CAKI-1. Besides, the GI50 in the assay on HOP-92 was 29.8 µM (inactive); in the assay on EKVX, 31 µM (inactive); in the assay on SF-295, 79.8 µM (inactive); with MDA-N it was > 100 µM (inactive); in the assay with UO-31 it was 23.7 µM (inactive); with HCT-15, 57.3 µM. Also, the GI50 in the assay on OVCAR-5 was > 100 µM (inactive); in the assay with UACC-62 it was 43.5 µM (inactive); with MOLT-4, 31.4 µM (inactive); with HT-29, 30.7 µM (inactive); with Malme-3M it was > 100 µM (inactive).
For `CSC1=Nc2ccccc2-c2nc(-c3ccccc3)cc(-c3ccccc3)c2C1`, the GI50 is 28.1 µM (inactive) in the assay on UACC-257; 5.16 µM (inactive) in the assay with HCT-116; 24.9 µM (inactive) in the assay with KM12; 12.4 µM (inactive) in the assay with CAKI-1; 23.1 µM (inactive) in the assay with EKVX; 13.6 µM (inactive) in the assay on SF-295. Moreover, the GI50 with MDA-N is 26.5 µM (inactive); with UO-31, 23.5 µM (inactive); in the assay with HCT-15 it was 31.6 µM; in the assay with OVCAR-5 it was 33 µM (inactive); in the assay on UACC-62 it was 9.77 µM (inactive); in the assay with MOLT-4, > 100 µM (inactive). Besides, the GI50 in the assay on HT-29 is 30.5 µM (inactive); in the assay with NCI-H460, 5.12 µM (inactive).
As to `CCN1CCCC(C#N)(c2ccccc2)CC1` (configuration not stated), the GI50 in the assay on UACC-257, in the assay on HCT-116, with KM12, in the assay on CAKI-1, in the assay on HOP-92 and in the assay on EKVX was > 100 µM (inactive) each time. Further, the GI50 in the assay on SF-295 was > 100 µM (inactive); in the assay on MDA-N, > 100 µM (inactive); with UO-31, > 100 µM (inactive); in the assay with HCT-15, > 100 µM; with OVCAR-5, > 100 µM (inactive); in the assay on MOLT-4, > 100 µM (inactive). The GI50 in the assay with HT-29, with NCI-H460 and in the assay on Malme-3M was > 100 µM (inactive) each time.
On to `CCCCNC(=S)Nc1nc(C(=O)NNC(=S)NCc2ccccc2)cs1`, for which the GI50 with UACC-257 was 20.2 µM (inactive); with OVCAR-3, 52.4 µM (inactive); in the assay with SK-MEL-2, 46.9 µM (inactive); with HCT-116, 32.9 µM (inactive); in the assay on KM12 it was 49.1 µM (inactive); in the assay on CAKI-1, 29.6 µM (inactive). The GI50 in the assay on MCF7 was 12.3 µM (inactive); in the assay on EKVX, 42.8 µM (inactive); in the assay with SF-295, 37.5 µM (inactive); in the assay on MDA-N it was 39.9 µM (inactive); with UO-31, 23.9 µM (inactive); in the assay on HCT-15, 10.2 µM. Further, the GI50 was > 100 µM (inactive) with OVCAR-5; 19 µM (inactive) in the assay on UACC-62; 19.1 µM (inactive) in the assay with MOLT-4; 37.2 µM (inactive) in the assay with HT-29; 50.5 µM (inactive) in the assay with Malme-3M.
With `COC(=O)C1CC2CCC1(O[Si](C(C)C)(C(C)C)C(C)C)C(O)C2` (configuration not stated), the GI50 in the assay on OVCAR-3 is 17.3 µM (inactive); in the assay on SK-MEL-2, 15.1 µM (inactive); in the assay on HCT-116 it was 18.2 µM (inactive); in the assay on KM12 it was 17.6 µM (inactive); in the assay on CAKI-1, 38.5 µM (inactive); in the assay on MCF7, 14.9 µM (inactive). The GI50 is 16 µM (inactive) with EKVX; 20 µM (inactive) in the assay on SF-295; 22 µM (inactive) in the assay with MDA-N; 16.6 µM (inactive) in the assay with UO-31; 16.9 µM with HCT-15; 14.2 µM (inactive) in the assay with OVCAR-5. For the same compound, the GI50 in the assay with UACC-62 is 37 µM (inactive); in the assay with MOLT-4, 10.9 µM (inactive); with HT-29, 16.6 µM (inactive); in the assay with NCI-H460, 33.7 µM (inactive); in the assay on Malme-3M, 54.2 µM (inactive).
`CNC(Cc1ccccc1)c1cccc(OC)c1O` (configuration not stated): the GI50 was 18.6 µM (inactive) in the assay on UACC-257; 60.5 µM (inactive) in the assay on OVCAR-3; > 100 µM (inactive) with SK-MEL-2; > 100 µM (inactive) in the assay with HCT-116; > 100 µM (inactive) in the assay on KM12; > 100 µM (inactive) in the assay with CAKI-1. Moreover, the GI50 in the assay on HOP-92 was > 100 µM (inactive); in the assay on EKVX it was 92.9 µM (inactive); with SF-295, > 100 µM (inactive); with MDA-N, 99.3 µM (inactive); with UO-31, > 100 µM (inactive); in the assay with HCT-15, > 100 µM. Also, the GI50 in the assay on OVCAR-5 is > 100 µM (inactive); with UACC-62 it was > 100 µM (inactive); in the assay on MOLT-4, > 100 µM (inactive); with HT-29, 91.6 µM (inactive); with NCI-H460, > 100 µM (inactive); in the assay on Malme-3M, > 100 µM (inactive).
As to `O=C1/C(=C/C=C/c2ccccc2)CCC1CNc1ccccc1` (configuration not stated), the GI50 with UACC-257 is 42.5 µM (inactive); with OVCAR-3 it was 23.7 µM (inactive); with HCT-116 it was 17.9 µM (inactive); with KM12 it was 14.9 µM (inactive); in the assay on CAKI-1, 40.2 µM (inactive); in the assay on MCF7 it was 6.49 µM (inactive). For the same compound, the GI50 with HOP-92 was 47.8 µM (inactive); in the assay with EKVX it was > 100 µM (inactive); in the assay with SF-295 it was > 100 µM (inactive); in the assay on UO-31, 59.8 µM (inactive); in the assay on HCT-15 it was 18.4 µM; with OVCAR-5, > 65.8 µM (inactive). For the same compound, the GI50 with UACC-62 is 50.4 µM (inactive); in the assay with MOLT-4, 20.3 µM (inactive); in the assay on HT-29, 24.7 µM (inactive); in the assay with NCI-H460 it was > 88.7 µM (inactive); in the assay with Malme-3M, 58.6 µM (inactive).
With `CSc1cc(Cl)c(C)cc1S(=O)(=O)NC(=O)NNc1ccccn1`, the GI50 in the assay on OVCAR-3, in the assay on SK-MEL-2, with HCT-116, in the assay with KM12, in the assay with CAKI-1 and in the assay with MCF7 was > 100 µM (inactive) each time. Besides, the GI50 with EKVX is > 100 µM (inactive); in the assay on SF-295, > 100 µM (inactive); in the assay with MDA-N it was > 100 µM (inactive); in the assay on HCT-15, > 100 µM; in the assay with OVCAR-5 it was > 100 µM (inactive); in the assay on MOLT-4, > 100 µM (inactive). Moreover, the GI50 with HT-29, in the assay with NCI-H460 and in the assay with Malme-3M was > 100 µM (inactive) throughout.
